Measured values: ChEMBL document CHEMBL1201862, “PubChem BioAssay data set” (2004)
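Test compounds were applied to cells in 96-well plates for 48 hours at 5 doses. Here, GI50 denotes the concentration required for 50% inhibition of growth.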 Active and inactive are the calls of the source. No stated cut-off is given here; in the data, active = GI50 up to about 1.1 µM and inactive = higher.

What was measured:
Experiment in all cases: growth of human tumour cells (NCI), 48 h
HL-60 = tested on: HL-60
SK-OV-3 = tested on: SK-OV-3
BT-549 = tested on: BT-549
SK-MEL-5 = tested on: SK-MEL-5
MDA-N = tested on: MDA-N
SF-539 = tested on: SF-539
OVCAR-8 = tested on: OVCAR-8
HCT-116 = tested on: HCT-116
COLO 205 = tested on: COLO 205
HCT-15 = tested on: HCT-15
SK-MEL-2 = tested on: SK-MEL-2
LOX IMVI = tested on: LOX IMVI
SNB-75 = tested on: SNB-75
DU-145 = tested on: DU-145
NCI/ADR-RES = tested on: NCI/ADR-RES
NCI-H23 = tested on: NCI-H23
RXF 393 = tested on: RXF 393
OVCAR-5 = tested on: OVCAR-5
UO-31 = tested on: UO-31
ACHN = tested on: ACHN
UACC-62 = tested on: UACC-62
NCI-H226 = tested on: NCI-H226
K562 = tested on: K562
SNB-19 = tested on: SNB-19
T47D = tested on: T47D
Hs-578T = tested on: Hs-578T
786-0 = tested on: 786-0
HT-29 = tested on: HT-29
SF-268 = tested on: SF-268
CAKI-1 = tested on: CAKI-1
SN12C = tested on: SN12C
MDA-MB-231 = tested on: MDA-MB-231
HCC 2998 = tested on: HCC 2998
HOP-62 = tested on: HOP-62
MCF7 = tested on: MCF7
M14 = tested on: M14
CCRF-CEM = tested on: CCRF-CEM
EKVX = tested on: EKVX
A549 = tested on: A549
KM12 = tested on: KM12
MDA-MB-435 = tested on: MDA-MB-435
NCI-H522 = tested on: NCI-H522
IGROV-1 = tested on: IGROV-1
A498 = tested on: A498
SK-MEL-28 = tested on: SK-MEL-28
UACC-257 = tested on: UACC-257
Malme-3M = tested on: Malme-3M
U-251 = tested on: U-251
PC-3 = tested on: PC-3
SF-295 = tested on: SF-295
HOP-92 = tested on: HOP-92
TK-10 = tested on: TK-10
MOLT-4 = tested on: MOLT-4
OVCAR-3 = tested on: OVCAR-3
NCI-H460 = tested on: NCI-H460
SW-620 = tested on: SW-620
OVCAR-4 = tested on: OVCAR-4

## COc1cc(OC)c2c(=O)c(OC)c(-c3ccc4c(c3)OCO4)oc2c1OC
HL-60
  GI50: 6.82 µM (inactive)
SK-OV-3
  GI50: > 100 µM (inactive)
BT-549
  GI50: > 100 µM (inactive)
SK-MEL-5
  GI50: 23.2 µM (inactive)
MDA-N
  GI50: > 100 µM (inactive)
SF-539
  GI50: > 100 µM (inactive)
OVCAR-8
  GI50: > 100 µM (inactive)
HCT-116
  GI50: 83.9 µM (inactive)
COLO 205
  GI50: 53.6 µM (inactive)
HCT-15
  GI50: > 100 µM
SK-MEL-2
  GI50: > 100 µM (inactive)
LOX IMVI
  GI50: 41.2 µM (inactive)
SNB-75
  GI50: > 100 µM (inactive)
DU-145
  GI50: 81.1 µM (inactive)
NCI/ADR-RES
  GI50: > 100 µM (inactive)
NCI-H23
  GI50: > 100 µM (inactive)
RXF 393
  GI50: > 100 µM (inactive)
OVCAR-5
  GI50: > 100 µM (inactive)
UO-31
  GI50: > 100 µM (inactive)
ACHN
  GI50: 83.8 µM (inactive)
UACC-62
  GI50: 98.9 µM (inactive)
NCI-H226
  GI50: > 100 µM (inactive)
K562
  GI50: > 100 µM (inactive)
SNB-19
  GI50: > 100 µM (inactive)
T47D
  GI50: 41.8 µM (inactive)
Hs-578T
  GI50: > 100 µM (inactive)
786-0
  GI50: > 100 µM (inactive)
HT-29
  GI50: > 100 µM (inactive)
SF-268
  GI50: > 100 µM (inactive)
CAKI-1
  GI50: > 100 µM (inactive)
SN12C
  GI50: > 100 µM (inactive)
MDA-MB-231
  GI50: 91.4 µM (inactive)
HCC 2998
  GI50: > 100 µM (inactive)
HOP-62
  GI50: 91.8 µM (inactive)
MCF7
  GI50: > 100 µM (inactive)
M14
  GI50: > 100 µM (inactive)
CCRF-CEM
  GI50: 28.5 µM (inactive)
EKVX
  GI50: 47 µM (inactive)
A549
  GI50: > 100 µM (inactive)
KM12
  GI50: > 100 µM (inactive)
MDA-MB-435
  GI50: > 100 µM (inactive)
NCI-H522
  GI50: 43.1 µM (inactive)
IGROV-1
  GI50: > 100 µM (inactive)
A498
  GI50: > 100 µM (inactive)
SK-MEL-28
  GI50: > 100 µM (inactive)
UACC-257
  GI50: > 100 µM (inactive)
Malme-3M
  GI50: > 100 µM (inactive)
U-251
  GI50: > 100 µM (inactive)
PC-3
  GI50: > 100 µM (inactive)
SF-295
  GI50: 91.4 µM (inactive)
HOP-92
  GI50: 4.91 µM (inactive)
TK-10
  GI50: > 100 µM (inactive)
MOLT-4
  GI50: 78.5 µM (inactive)
OVCAR-3
  GI50: > 100 µM (inactive)
NCI-H460
  GI50: > 100 µM (inactive)
SW-620
  GI50: > 100 µM (inactive)

## O=[N+]([O-])C(Cl)C(Cl)C(Cl)=C(Cl)Cl (stereo unspecified)
HL-60
  GI50: 10.4 µM (inactive)
SK-OV-3
  GI50: 19.5 µM (inactive)
BT-549
  GI50: 22.6 µM (inactive)
SK-MEL-5
  GI50: 15 µM (inactive)
MDA-N
  GI50: 19.1 µM (inactive)
SF-539
  GI50: 38.5 µM (inactive)
OVCAR-8
  GI50: 30.9 µM (inactive)
HCT-116
  GI50: 19.4 µM (inactive)
COLO 205
  GI50: 17.5 µM (inactive)
HCT-15
  GI50: 18.7 µM
LOX IMVI
  GI50: 14.4 µM (inactive)
SNB-75
  GI50: 32.7 µM (inactive)
DU-145
  GI50: 88.7 µM (inactive)
NCI/ADR-RES
  GI50: 40.7 µM (inactive)
NCI-H23
  GI50: 23.8 µM (inactive)
RXF 393
  GI50: 18.5 µM (inactive)
OVCAR-5
  GI50: > 50.2 µM (inactive)
UO-31
  GI50: > 31.6 µM (inactive)
OVCAR-4
  GI50: 16.7 µM (inactive)
ACHN
  GI50: 16.4 µM (inactive)
UACC-62
  GI50: 16.6 µM (inactive)
NCI-H226
  GI50: > 100 µM (inactive)
K562
  GI50: 29.8 µM (inactive)
SNB-19
  GI50: 54 µM (inactive)
T47D
  GI50: 0.547 µM (active)
Hs-578T
  GI50: 25.1 µM (inactive)
786-0
  GI50: 7.85 µM (inactive)
HT-29
  GI50: 17.6 µM (inactive)
SF-268
  GI50: > 45.8 µM (inactive)
CAKI-1
  GI50: 17.6 µM (inactive)
SN12C
  GI50: 33.7 µM (inactive)
MDA-MB-231
  GI50: 16.2 µM (inactive)
HCC 2998
  GI50: > 40.9 µM (inactive)
HOP-62
  GI50: 41.2 µM (inactive)
MCF7
  GI50: 13.8 µM (inactive)
M14
  GI50: 13.8 µM (inactive)
CCRF-CEM
  GI50: 23.7 µM (inactive)
EKVX
  GI50: > 100 µM (inactive)
A549
  GI50: > 91.8 µM (inactive)
KM12
  GI50: > 66.7 µM (inactive)
MDA-MB-435
  GI50: 23.7 µM (inactive)
NCI-H522
  GI50: 21.4 µM (inactive)
IGROV-1
  GI50: 13.3 µM (inactive)
A498
  GI50: > 77.3 µM (inactive)
SK-MEL-28
  GI50: 18.5 µM (inactive)
UACC-257
  GI50: 22.1 µM (inactive)
Malme-3M
  GI50: 14.8 µM (inactive)
U-251
  GI50: > 83.6 µM (inactive)
PC-3
  GI50: > 41.3 µM (inactive)
SF-295
  GI50: 60 µM (inactive)
TK-10
  GI50: 19.4 µM (inactive)
MOLT-4
  GI50: 19.1 µM (inactive)
OVCAR-3
  GI50: 26 µM (inactive)
NCI-H460
  GI50: 49.1 µM (inactive)
SW-620
  GI50: 18 µM (inactive)
